In the NIST ThermoML archive (doi:10.1016/j.tca.2013.11.010):

What was measured:
[1] = relative permittivity at various frequencies (dimensionless); details: 101.3 kPa, Liquid, Frequency=2 MHz, Parallel plate capacitor
[2] = for surface tension liquid-gas: Drop volume; for viscosity / speed of sound / mass density: 101.33 kPa; for viscosity / speed of sound / mass density / vapor or sublimation pressure: Liquid; for viscosity: Capillary tube (Ostwald / Ubbelohde) method; for speed of sound: Sing-around technique in a fixed-path interferometer; for mass density: Vibrating tube method; for vapor or sublimation pressure: Ebulliometric method (Recirculating still)
[3] = refractive index (Na D-line) (dimensionless); details: 101.33 kPa, Liquid, Standard Abbe refractometry

CCOC(=O)C(C)O (racemic) [DL-ethyl lactate]
Details | mass density, [2] [kg/m3] | refractive index, [3] | relative permittivity, [1] | speed of sound, [2] [m/s] | surface tension liquid-gas, [2] [mN/m] | vapor or sublimation pressure, [2] [kPa] | viscosity, [2] [mPa·s]
278.15 K | 1050.05 | – | 17.791 | 1354.5 | 31.47 | – | 4.479
280.65 K | 1047.37 | – | 17.538 | 1345.2 | 31.21 | – | 4.091
283.15 K | 1044.68 | 1.41751 | 17.219 | 1335.7 | 30.94 | – | 3.75
285.65 K | 1041.96 | 1.41644 | 16.961 | 1326.2 | 30.79 | – | 3.451
288.15 K | 1039.26 | 1.41528 | 16.736 | 1316.8 | 30.43 | – | 3.184
290.65 K | 1036.54 | 1.41414 | 16.496 | 1307.5 | 30.18 | – | 2.947
293.15 K | 1033.82 | 1.41301 | 16.166 | 1298.3 | 29.95 | – | 2.735
295.65 K | 1031.09 | 1.41188 | 15.961 | 1289 | 29.67 | – | 2.546
298.15 K | 1028.37 | 1.41074 | 15.711 | 1279.7 | 29.49 | – | 2.375
300.65 K | 1025.63 | 1.40959 | 15.448 | 1270.5 | 29.23 | – | 2.221
303.15 K | 1022.89 | 1.40843 | 15.18 | 1261.2 | 28.88 | 0.436 | 2.081
305.65 K | 1020.15 | 1.40729 | 14.917 | 1251.9 | 28.64 | – | 1.955
308.15 K | 1017.4 | 1.40615 | 14.639 | 1242.6 | 28.42 | 0.603 | 1.838
310.65 K | 1014.64 | 1.40501 | 14.373 | 1233.3 | 28.12 | – | 1.733
313.15 K | 1011.88 | 1.40381 | 14.107 | 1224 | 27.84 | 0.829 | 1.636
315.65 K | 1009.12 | 1.40267 | 13.843 | 1214.7 | 27.46 | – | 1.547
318.15 K | 1006.34 | 1.40152 | 13.573 | 1205.4 | 27.19 | 1.142 | 1.466
320.65 K | 1003.57 | 1.40036 | 13.298 | 1196.1 | 26.92 | – | 1.391
323.15 K | 1000.78 | 1.39918 | 13.045 | 1186.8 | 26.65 | 1.536 | 1.321
325.65 K | 997.99 | 1.39798 | 12.786 | 1177.6 | 26.29 | – | 1.255
328.15 K | 995.193 | 1.39684 | 12.538 | 1168.4 | 26.08 | 2.015 | 1.196
330.65 K | 992.389 | 1.3956 | 12.286 | 1159.1 | 25.92 | – | 1.14
333.15 K | 989.579 | 1.39448 | 12.044 | 1149.9 | 25.48 | 2.717 | 1.087
335.65 K | 986.763 | 1.3933 | 11.787 | 1140.7 | 25.32 | – | 1.037
338.15 K | 983.942 | 1.39215 | 11.495 | 1131.6 | 25.05 | 3.523 | 0.9907
343.15 K | – | – | – | – | – | 4.591 | –
348.15 K | – | – | – | – | – | 5.851 | –
353.15 K | – | – | – | – | – | 7.323 | –
358.15 K | – | – | – | – | – | 9.29 | –
363.15 K | – | – | – | – | – | 11.49 | –
368.15 K | – | – | – | – | – | 14.19 | –
373.15 K | – | – | – | – | – | 17.37 | –
378.15 K | – | – | – | – | – | 21.11 | –
383.15 K | – | – | – | – | – | 25.51 | –
388.15 K | – | – | – | – | – | 30.62 | –
393.15 K | – | – | – | – | – | 36.24 | –
398.15 K | – | – | – | – | – | 42.71 | –
403.15 K | – | – | – | – | – | 50.4 | –
408.15 K | – | – | – | – | – | 59.11 | –
413.15 K | – | – | – | – | – | 69.13 | –
418.15 K | – | – | – | – | – | 80.2 | –
423.15 K | – | – | – | – | – | 92.51 | –

CCCCOC(=O)C(C)O (configuration not stated) [butyl 2-hydroxypropanoate]
Details | mass density, [2] [kg/m3] | refractive index, [3] | relative permittivity, [1] | speed of sound, [2] [m/s] | surface tension liquid-gas, [2] [mN/m] | vapor or sublimation pressure, [2] [kPa] | viscosity, [2] [mPa·s]
278.15 K | 996.896 | – | 11.488 | 1357.2 | 30.07 | – | 6.496
280.65 K | 994.466 | – | 11.323 | 1348.2 | 29.86 | – | 5.873
283.15 K | 992.023 | 1.42578 | 11.164 | 1339.1 | 29.65 | – | 5.333
285.65 K | 989.578 | 1.42472 | 11.046 | 1330.1 | 29.42 | – | 4.86
288.15 K | 987.126 | 1.4237 | 10.912 | 1321.2 | 29.14 | – | 4.446
290.65 K | 984.671 | 1.42259 | 10.769 | 1312.2 | 28.93 | – | 4.077
293.15 K | 982.212 | 1.4215 | 10.593 | 1303.2 | 28.72 | – | 3.753
295.65 K | 979.75 | 1.42038 | 10.428 | 1294.1 | 28.38 | – | 3.466
298.15 K | 977.283 | 1.41928 | 10.298 | 1285 | 28.15 | – | 3.207
300.65 K | 974.813 | 1.41815 | 10.158 | 1276 | 27.87 | – | 2.978
303.15 K | 972.337 | 1.41703 | 10.024 | 1266.9 | 27.64 | 0.102 | 2.773
305.65 K | 969.859 | 1.4159 | 9.87 | 1257.8 | 27.38 | – | 2.588
308.15 K | 967.374 | 1.41477 | 9.695 | 1248.8 | 27.16 | 0.149 | 2.423
310.65 K | 964.888 | 1.41366 | 9.583 | 1239.8 | 26.92 | – | 2.272
313.15 K | 962.397 | 1.41252 | 9.411 | 1230.8 | 26.68 | 0.201 | 2.134
315.65 K | 959.903 | 1.41139 | 9.273 | 1221.7 | 26.42 | – | 2.011
318.15 K | 957.407 | 1.41026 | 9.165 | 1212.8 | 26.1 | 0.273 | 1.897
320.65 K | 954.908 | 1.4091 | 9.002 | 1203.8 | 25.89 | – | 1.793
323.15 K | 952.408 | 1.40797 | 8.844 | 1194.9 | 25.7 | 0.371 | 1.695
325.65 K | 949.904 | 1.40682 | 8.699 | 1185.9 | 25.43 | – | 1.607
328.15 K | 947.397 | 1.40572 | 8.545 | 1177 | 25.14 | 0.511 | 1.526
330.65 K | 944.885 | 1.40441 | 8.418 | 1168 | 24.92 | – | 1.45
333.15 K | 942.369 | 1.40341 | 8.286 | 1159.1 | 24.67 | 0.679 | 1.379
335.65 K | 939.848 | 1.40226 | 8.164 | 1150.3 | 24.41 | – | 1.315
338.15 K | 937.324 | 1.40114 | 8.047 | 1141.5 | 24.16 | 0.899 | 1.257
343.15 K | – | – | – | – | – | 1.192 | –
348.15 K | – | – | – | – | – | 1.541 | –
353.15 K | – | – | – | – | – | 1.979 | –
358.15 K | – | – | – | – | – | 2.502 | –
363.15 K | – | – | – | – | – | 3.224 | –
368.15 K | – | – | – | – | – | 4.057 | –
373.15 K | – | – | – | – | – | 5.075 | –
378.15 K | – | – | – | – | – | 6.271 | –
383.15 K | – | – | – | – | – | 7.753 | –
388.15 K | – | – | – | – | – | 9.531 | –
393.15 K | – | – | – | – | – | 11.64 | –
398.15 K | – | – | – | – | – | 14.12 | –
403.15 K | – | – | – | – | – | 17 | –
408.15 K | – | – | – | – | – | 20.43 | –
413.15 K | – | – | – | – | – | 24.39 | –
418.15 K | – | – | – | – | – | 29.2 | –
423.15 K | – | – | – | – | – | 34.6 | –
428.15 K | – | – | – | – | – | 40.78 | –
433.15 K | – | – | – | – | – | 47.9 | –
438.15 K | – | – | – | – | – | 55.97 | –
443.15 K | – | – | – | – | – | 65.3 | –
448.15 K | – | – | – | – | – | 75.81 | –
453.15 K | – | – | – | – | – | 87.7 | –
